Measured values published in PubChem BioAssay (NCI).
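96-well plates; 48 h exposure; 5 concentrations. Endpoints by linear interpolation between flanking doses. Not reached: highest tested concentration assigned. Here, GI50 denotes the concentration required for 50% inhibition of growth. Definition used: TGI = concentration required for complete inhibition of growth.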

Key:
Test in all cases: NCI anticancer screen, dose series, 48 h
A549 NSCLC = test system: A549 NSCLC
HT29 colon = test system: HT29 colon
M14 melanoma = test system: M14 melanoma
MCF7 breast = test system: MCF7 breast
MOLT-4 leukemia = test system: MOLT-4 leukemia
OVCAR-8 ovarian = test system: OVCAR-8 ovarian
PC-3 prostate = test system: PC-3 prostate
SF-295 CNS = test system: SF-295 CNS
SK-MEL-2 melanoma = test system: SK-MEL-2 melanoma
SNB-75 CNS = test system: SNB-75 CNS

Row | Structure (SMILES) | GI50 (A549 NSCLC) [µM] | TGI (A549 NSCLC) [µM] | GI50 (HT29 colon) [µM] | TGI (HT29 colon) [µM] | GI50 (M14 melanoma) [µM] | TGI (M14 melanoma) [µM] | GI50 (MCF7 breast) [µM] | TGI (MCF7 breast) [µM] | GI50 (MOLT-4 leukemia) [µM] | TGI (MOLT-4 leukemia) [µM] | GI50 (OVCAR-8 ovarian) [µM] | TGI (OVCAR-8 ovarian) [µM] | GI50 (PC-3 prostate) [µM] | TGI (PC-3 prostate) [µM] | GI50 (SF-295 CNS) [µM] | TGI (SF-295 CNS) [µM] | GI50 (SK-MEL-2 melanoma) [µM] | TGI (SK-MEL-2 melanoma) [µM] | GI50 (SNB-75 CNS) [µM] | TGI (SNB-75 CNS) [µM]
1 | COc1cc2c(/C=C3\C(=O)Nc4ccc(Br)cc43)c(Cl)n(C)c2cc1C | 2.56 | 14.5 | 1.98 | 6.83 | 1.8 | 6.01 | 0.322 | 6.53 | 5.63 | > 27.5 | 5.12 | 20.3 | 1.17 | 18.3 | 0.327 | 1.16 | 1.74 | 5.7 | 1.82 | > 25.7
2 | NCCOc1ccccn1 | – | > 100 | – | > 100 | – | > 100 | – | > 100 | – | > 100 | – | > 100 | – | > 100 | – | > 100 | – | > 100 | – | > 100
3 | N#Cc1c2ccccc2c2nnc3cc(Cl)c(Cl)cc3n12 | 47.7 | > 100 | > 100 | > 100 | > 100 | > 100 | 27.5 | 90.3 | 27.4 | > 100 | 40 | > 100 | 30 | 73.7 | 93.7 | > 100 | 60.7 | > 100 | 71.7 | > 100
4 | CC(C)[C@]12O[C@H]1[C@@H]1O[C@]13[C@]1(O[C@H]1C[C@H]1c4c(C(=O)c5ccccc5)oc(OC(=O)c5ccccc5)c4CC[C@@]13C)[C@@H]2O | 0.059 | > 62.4 | 0.0172 | > 38 | 0.0236 | 0.0688 | 0.0139 | 19.9 | 0.0236 | > 31.6 | 0.0494 | > 50.2 | 0.0358 | – | 0.0653 | 2.75 | 0.0252 | 0.0781 | 0.0224 | 0.17
5 | O=[N+]([O-])c1ccc2[nH]cc(-c3c4ccccc4cc4[nH]c5ccc([N+](=O)[O-])cc5c34)c2c1 | 2.07 | 4.8 | 3.62 | 11.3 | 1.67 | 3.22 | 1.65 | 3.73 | 2.45 | 6.55 | 2.59 | 8.17 | 1.9 | 4.43 | 1.63 | 3.73 | 2.18 | 5.34 | 1.84 | 5.93
6 | N#C/C(=C/N1CCN(C(=O)c2ccco2)C1=S)C(N)=O | 34.5 | > 100 | 24.1 | > 100 | 16.5 | 43.2 | 1.71 | 21 | 39.8 | > 100 | 43.7 | > 100 | 35.6 | > 100 | 32.1 | > 100 | 24.4 | 62.3 | > 100 | > 100
7 | CO/N=C1/c2cc(OC)ccc2-c2c(NOC)nc3ccccc3c21 | 16 | 37.3 | 42 | > 100 | > 100 | > 100 | 27.1 | > 100 | 47 | > 100 | 10.3 | 37 | 21.3 | 88.2 | 32.8 | > 100 | 24.7 | 88.5 | 14.6 | 40.2
8 | Cc1ccc(/C=C(\C#N)n2nnc3cc(F)c(F)cc32)cc1 | 2.28 | 7.3 | 0.421 | 1.53 | 2.07 | 14.9 | 2.45 | > 100 | 2.7 | 36.5 | 2.26 | 6.93 | 5.16 | 24.3 | 4.02 | 34.4 | 2.26 | 7.97 | 2.45 | 84.5
9 | C=C1C(=O)O[C@H]2[C@H]1CC/C(Cn1cc(CCC)nn1)=C\CC[C@@]1(C)O[C@@H]21 | 22.3 | 44.3 | 5.5 | 18.2 | 3.99 | 17.9 | 3.35 | 15.4 | 5.54 | 27.6 | 13.5 | 29.8 | 14.9 | 29.4 | 18.5 | 39.2 | 16.3 | 34.5 | 18.5 | 69.4
10 | O=Cc1ccc(C(F)(F)F)cc1.[C-]#[O+].[C-]#[O+].[C-]#[O+].[Cr] | 23 | > 100 | 22.6 | 54.3 | 12.9 | 37 | 24.7 | > 100 | 15.4 | 68 | 25.3 | > 100 | 31.2 | > 100 | 38.1 | > 100 | 23.7 | > 100 | 15.6 | 49.5
11 | O=C1NC(=NCCc2ccccc2Cl)S/C1=C\c1ccc2ncccc2c1 | 5.16 | > 25 | 2.79 | > 18.9 | 6.48 | > 25 | 1.32 | > 25 | 5.4 | 17.2 | 8.16 | > 25 | 6.26 | > 25 | 2.14 | > 11.2 | 5.86 | 14 | 1.7 | > 14.9
12 | COc1ccc(C(=O)Nc2cccc(C3CC(=O)c4c(cc(OC)c(OC)c4OC)O3)c2)cc1 (centres undefined) | 3.31 | > 100 | 3.38 | 12.2 | 0.534 | 41.7 | 0.466 | 56.4 | 1.02 | 5.18 | 2.79 | 20.5 | 0.736 | 27.9 | 1.72 | 63.8 | 2.09 | 27.1 | 1.35 | 8.35
